The target in the experiment is PD-1/PD-L1 (Homo sapiens, UniProt Q9NZQ7). The experiment can be described thus: TR-FRET PD-1/PD-L1 binding inhibition at the molecular level (free proteins). As to conditions: Tag1-PD-L1 and Tag2-PD-1 proteins, twelve concentrations from 200 nM, 2 hours at room temperature, read-out: FRET assay (IC50). Summed up: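 HTRF read-out at 665/620 nm after 2 h at room temperature. Detection used anti-Tag1 Eu cryptate plus anti-Tag2 XL665 antibodies. Tagged PD-L1 and PD-1 proteins were pre-mixed with compound across twelve […] 1:2 dilutions starting at 200 nM.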
Chain of PD-1/PD-L1 (Q9NZQ7 19-238 limits assumed): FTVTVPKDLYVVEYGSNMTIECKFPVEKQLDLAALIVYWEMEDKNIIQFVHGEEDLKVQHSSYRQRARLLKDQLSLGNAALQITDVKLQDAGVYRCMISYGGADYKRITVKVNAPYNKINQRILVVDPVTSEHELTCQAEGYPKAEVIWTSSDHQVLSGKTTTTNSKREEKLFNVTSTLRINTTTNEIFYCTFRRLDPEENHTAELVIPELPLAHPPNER

SMILES strings stand for the structures. Bounds are passed on as bounds.

Usually IC50 stands for the concentration at which inhibition is half-maximal.

`COc1nc(-c2cccc(-c3cccc(-c4cc5n(n4)CCCC5NCC(=O)O)c3Cl)c2Cl)cnc1CNC[C@@H]1CCC(=O)N1` (stereo partly drawn) [Compound 169, 2-((2-(2,2'-dichloro-3'-(6-methoxy-5-(((((S)-5-oxopyrrolidin-2-yl)methyl)amino)methyl)pyrazin-2-yl)-[1,1'-biphenyl]-3-yl)-4,5,6,7-tetrahydropyrazolo[1,5-a]pyridin-4-yl)amino)acetic acid]: the IC50 is below 10 nM.

Consider `COc1nc(-c2cccc(-c3cccc(-c4cc5n(n4)CCCC5N4CC[C@@H](O)C4)c3Cl)c2Cl)cnc1CNC[C@@H]1CCC(=O)N1` (stereo partly drawn) [Compound 170, (5S)-5-((((5-(2,2'-dichloro-3'-(4-((R)-3-hydroxypyrrolidin-1-yl)-4,5,6,7-tetrahydropyrazolo[1,5-a]pyridin-2-yl)-[1,1'-biphenyl]-3-yl)-3-methoxypyrazin-2-yl)methyl)amino)methyl)pyrrolidin-2-one], for which the IC50 is 10 to 100 nM.

For `Cc1c(Nc2nccc3cc(CN4CC[C@@H](O)C4)cnc23)cccc1-c1cccc(-c2cc3n(n2)CCCC3NCCO)c1C` (stereo partly drawn) [Compound 174, (3R)-1-((8-((3'-(4-((2-hydroxyethyl)amino)-4,5,6,7-tetrahydropyrazolo[1,5-a]pyridin-2-yl)-2,2'-dimethyl-[1,1'-biphenyl]-3-yl)amino)-1,7-naphthyridin-3-yl)methyl)pyrrolidin-3-ol], the IC50 was below 10 nM.

As to `CC(=O)NCCNC1CCCn2nc(-c3cccc(-c4cccc(Nc5nccc6cc(CN7CC[C@@H](O)C7)cnc56)c4C)c3C)cc21` (stereo partly drawn) [Compound 175, N-(2-((2-(3'-((3-(((R)-3-hydroxypyrrolidin-1-yl)methyl)-1,7-naphthyridin-8-yl)amino)-2,2'-dimethyl-[1,1'-biphenyl]-3-yl)-4,5,6,7-tetrahydropyrazolo[1,5-a]pyridin-4-yl)amino)ethyl)acetamide], the IC50 was below 10 nM.

As for `Cc1c(Nc2nccc3cc(CN4CC[C@@H](O)C4)cnc23)cccc1-c1cccc(-c2cc3n(n2)CCCC3NC[C@@H]2CCC(=O)N2)c1C` (stereo partly drawn) [Compound 176, (5S)-5-(((2-(3'-((3-(((R)-3-hydroxypyrrolidin-1-yl)methyl)-1,7-naphthyridin-8-yl)amino)-2,2'-dimethyl-[1,1'-biphenyl]-3-yl)-4,5,6,7-tetrahydropyrazolo[1,5-a]pyridin-4-yl)amino)methyl)pyrrolidin-2-one], the IC50 lay within 10 to 100 nM.

`Cc1c(Nc2nccc3cc(CN4CC[C@@H](O)C4)cnc23)cccc1-c1cccc(-c2cc3n(n2)CCCC3N2CC[C@@H](O)C2)c1C` (stereo partly drawn) [Compound 177, (3R)-1-((8-((3'-(4-((R)-3-hydroxypyrrolidin-1-yl)-4,5,6,7-tetrahydropyrazolo[1,5-a]pyridin-2-yl)-2,2'-dimethyl-[1,1'-biphenyl]-3-yl)amino)-1,7-naphthyridin-3-yl)methyl)pyrrolidin-3-ol]: the IC50 was below 10 nM.

On to `Cc1c(Nc2nccc3cc(CN4CC[C@@H](O)C4)cnc23)cccc1-c1cccc(-c2cc3n(n2)CCCC3N2CC[C@@H](C(=O)O)C2)c1C` (stereo partly drawn) [Compound 178, (3R)-1-(2-(3'-((3-(((R)-3-hydroxypyrrolidin-1-yl)methyl)-1,7-naphthyridin-8-yl)amino)-2,2'-dimethyl-[1,1'-biphenyl]-3-yl)-4,5,6,7-tetrahydropyrazolo[1,5-a]pyridin-4-yl)pyrrolidine-3-carboxylic acid], for which the IC50 was below 10 nM.

As for `Cc1c(Nc2nccc3cc(CN4CC[C@@H](O)C4)cnc23)cccc1-c1cccc(-c2cc3n(n2)CCCC3NCC(=O)O)c1C` (stereo partly drawn) [Compound 179, 2-((2-(3'-((3-(((R)-3-hydroxypyrrolidin-1-yl)methyl)-1,7-naphthyridin-8-yl)amino)-2,2'-dimethyl-[1,1'-biphenyl]-3-yl)-4,5,6,7-tetrahydropyrazolo[1,5-a]pyridin-4-yl)amino)acetic acid], the IC50 is below 10 nM.

For `OCCNC1CCCn2nc(-c3cccc(-c4cccc(Nc5nccc6cc(CN7CC[C@@H](O)C7)cnc56)c4Cl)c3Cl)cc21` (stereo partly drawn) [Compound 180, (3R)-1-((8-((2,2'-dichloro-3'-(4-((2-hydroxyethyl)amino)-4,5,6,7-tetrahydropyrazolo[1,5-a]pyridin-2-yl)-[1,1'-biphenyl]-3-yl)amino)-1,7-naphthyridin-3-yl)methyl)pyrrolidin-3-ol], the IC50 is below 10 nM.

Take `CC(=O)NCCNC1CCCn2nc(-c3cccc(-c4cccc(Nc5nccc6cc(CN7CC[C@@H](O)C7)cnc56)c4Cl)c3Cl)cc21` (stereo partly drawn) [Compound 181, N-(2-((2-(2,2'-dichloro-3'-((3-(((R)-3-hydroxypyrrolidin-1-yl)methyl)-1,7-naphthyridin-8-yl)amino)-[1,1'-biphenyl]-3-yl)-4,5,6,7-tetrahydropyrazolo[1,5-a]pyridin-4-yl)amino)ethyl)acetamide]: the IC50 is below 10 nM.

For `O=C1CC[C@@H](CNC2CCCn3nc(-c4cccc(-c5cccc(Nc6nccc7cc(CN8CC[C@@H](O)C8)cnc67)c5Cl)c4Cl)cc32)N1` (stereo partly drawn) [Compound 182, (5S)-5-(((2-(2,2'-dichloro-3'-((3-(((R)-3-hydroxypyrrolidin-1-yl)methyl)-1,7-naphthyridin-8-yl)amino)-[1,1'-biphenyl]-3-yl)-4,5,6,7-tetrahydropyrazolo[1,5-a]pyridin-4-yl)amino)methyl)pyrrolidin-2-one], the IC50 is 10 to 100 nM.

For the compound `O[C@@H]1CCN(Cc2cnc3c(Nc4cccc(-c5cccc(-c6cc7n(n6)CCCC7N6CC[C@@H](O)C6)c5Cl)c4Cl)nccc3c2)C1` (stereo partly drawn) [Compound 183, (3R)-1-(2-(2,2'-dichloro-3'-((3-(((R)-3-hydroxypyrrolidin-1-yl)methyl)-1,7-naphthyridin-8-yl)amino)-[1,1'-biphenyl]-3-yl)-4,5,6,7-tetrahydropyrazolo[1,5-a]pyridin-4-yl)pyrrolidin-3-ol], the half-maximal inhibitory concentration (IC50) is below 10 nM.

As for `O=C(O)[C@@H]1CCN(C2CCCn3nc(-c4cccc(-c5cccc(Nc6nccc7cc(CN8CC[C@@H](O)C8)cnc67)c5Cl)c4Cl)cc32)C1` (stereo partly drawn) [Compound 184, (3R)-1-(2-(2,2'-dichloro-3'-((3-(((R)-3-hydroxypyrrolidin-1-yl)methyl)-1,7-naphthyridin-8-yl)amino)-[1,1'-biphenyl]-3-yl)-4,5,6,7-tetrahydropyrazolo[1,5-a]pyridin-4-yl)pyrrolidine-3-carboxylic acid], the IC50 was below 10 nM.

Turning to `O=C(O)CNC1CCCn2nc(-c3cccc(-c4cccc(Nc5nccc6cc(CN7CC[C@@H](O)C7)cnc56)c4Cl)c3Cl)cc21` (stereo partly drawn) [Compound 185, 2-((2-(2,2'-dichloro-3'-((3-(((R)-3-hydroxypyrrolidin-1-yl)methyl)-1,7-naphthyridin-8-yl)amino)-[1,1'-biphenyl]-3-yl)-4,5,6,7-tetrahydropyrazolo[1,5-a]pyridin-4-yl)amino)acetic acid], the IC50 is below 10 nM.

Take `COc1cc(-c2cccc(-c3cccc(NC(=O)c4cc5n(n4)CCCC5NCC(=O)O)c3Cl)c2Cl)cc(F)c1CNCCO` (stereo not drawn) [Compound 186, 2-((2-((2,2'-dichloro-3"-fluoro-4"-(((2-hydroxyethyl)amino)methyl)-5"-methoxy-[1,1':3',1"-terphenyl]-3-yl)carbamoyl)-4,5,6,7-tetrahydropyrazolo[1,5-a]pyridin-4-yl)amino)acetic acid]: the IC50 was below 10 nM.

Take `COc1cc(-c2cccc(-c3cccc(NC(=O)c4cc5n(n4)CCCC5NCC(=O)O)c3Cl)c2Cl)cc(F)c1CN1CC[C@@H](O)C1` (stereo partly drawn) [Compound 187, 2-((2-((2,2'-dichloro-3"-fluoro-4"-(((R)-3-hydroxypyrrolidin-1-yl)methyl)-5"-methoxy-[1,1':3',1"-terphenyl]-3-yl)carbamoyl)-4,5,6,7-tetrahydropyrazolo[1,5-a]pyridin-4-yl)amino)acetic acid]: the IC50 was below 10 nM.

For the compound `COc1cc(-c2cccc(-c3cccc(NC(=O)c4cc5n(n4)CCCC5NCC(=O)O)c3Cl)c2Cl)cc(F)c1CNC[C@@H]1CCC(=O)N1` (stereo partly drawn) [Compound 188, 2-((2-((2,2'-dichloro-3"-fluoro-5"-methoxy-4"-(((((S)-5-oxopyrrolidin-2-yl)methyl)amino)methyl)-[1,1':3',1"-terphenyl]-3-yl)carbamoyl)-4,5,6,7-tetrahydropyrazolo[1,5-a]pyridin-4-yl)amino)acetic acid], the IC50 is below 10 nM.

Regarding `COc1cc(-c2cccc(-c3cccc(NC(=O)c4cc5n(n4)CCCC5NCC(=O)O)c3Cl)c2Cl)cc(F)c1CNCCNC(C)=O` (stereo not drawn) [Compound 189, 2-((2-((4"-(((2-acetamidoethyl)amino)methyl)-2,2'-dichloro-3"-fluoro-5"-methoxy-[1,1':3',1"-terphenyl]-3-yl)carbamoyl)-4,5,6,7-tetrahydropyrazolo[1,5-a]pyridin-4-yl)amino)acetic acid], the IC50 was below 10 nM.

Take `COc1cc(C(=O)Nc2cccc(-c3cccc(NC(=O)c4cc5n(n4)CCCC5NCC(=O)O)c3Cl)c2Cl)cc(F)c1CNCCO` (stereo not drawn) [Compound 190, 2-((2-((2,2'-dichloro-3'-(3-fluoro-4-(((2-hydroxyethyl)amino)methyl)-5-methoxybenzamido)-[1,1'-biphenyl]-3-yl)carbamoyl)-4,5,6,7-tetrahydropyrazolo[1,5-a]pyridin-4-yl)amino)acetic acid]: the IC50 was below 10 nM.

Consider `COc1cc(C(=O)Nc2cccc(-c3cccc(NC(=O)c4cc5n(n4)CCCC5NCC(=O)O)c3Cl)c2Cl)cc(F)c1CNCC(=O)O` (stereo not drawn) [Compound 191, 2-((4-((3'-(4-((carboxymethyl)amino)-4,5,6,7-tetrahydropyrazolo[1,5-a]pyridine-2-carboxamido)-2,2'-dichloro-[1,1'-biphenyl]-3-yl)carbamoyl)-2-fluoro-6-methoxybenzyl)amino)acetic acid], for which the IC50 is below 10 nM.

On to `COc1cc(C(=O)Nc2cccc(-c3cccc(NC(=O)c4cc5n(n4)CCCC5NCC(=O)O)c3Cl)c2Cl)cc(F)c1CN1CC[C@@H](O)C1` (stereo partly drawn) [Compound 192, 2-((2-((2,2'-dichloro-3'-(3-fluoro-4-(((R)-3-hydroxypyrrolidin-1-yl)methyl)-5-methoxybenzamido)-[1,1'-biphenyl]-3-yl)carbamoyl)-4,5,6,7-tetrahydropyrazolo[1,5-a]pyridin-4-yl)amino)acetic acid], for which the IC50 was below 10 nM.

The values above are taken from patent EP4755888A1 (ILAb Co., Ltd., priority 2023, dated 2025).
